# According to patent US20230098646A1, “NEUROMODULATION DEVICES AND RELATED METHODS” (Massachusetts Institute of Technology, priority 2021, published 2023):
# Where a SMILES comes first, the peptide text is derived from it. The star is where a group is joined. Cbz = O=C(OCc1ccccc1)*
# Tests used:
# C2C12 cells = assay: Extract exposure test (ISO), cell viability by ATP quantitation (CellTiter-Glo); format: cell-based; details: 40 um MG-132, positive control, vs negative control (p<0.05)
# Method: An extract exposure test following ISO norms was performed to evaluate the toxicity of the neuroprosthesis material. 0.2 gm of material were added to 1 mL of DMEM culture medium and stirred at 37° C. for 24 hours or 7 days to create the extract samples. 100 uL of fetal bovine serum were added to 900 uL aliquots of the samples and used to treat C2C12 cells plated in a 96 well plate in triplicate. A negative control of untreated media and positive control of media containing 40 um MG-132, a small molecule proteasome inhibitor, were also performed. At 24 and 72 hours, cell viability was measured through quantitation of ATP using CellTiter-Glo (Promega) using a Tecan M1000Pro.
# [1] = test system: lower esophageal sphincter; assay: Glucagon infusion through the neuroprosthesis microfluidic channel into the lower esophageal sphincter, intraluminal manometry; format: in vivo, swine
# Method: The neuroprosthesis' distal tip was implanted in the lower esophageal sphincter and glucagon was infused through the microfluidic channel. This chemical stimulation yielded relaxation of the sphincter within 10-20 s. […] Muscle tone returned within 1.5 minutes whereupon repeated infusions led to relaxation. Injection of saline produced no measurable effect and served as negative a control.
# Following validation of the safety, efficacy, and biocompatibility, the prosthesis was implanted Yorkshire swine (n=2, 94 kg & 70 kg). The optimized electrical stimulation parameters were programmed into the controller. A pump primed the microfluidic channel and injected 5mg/mL glucagon per neurochemical stimulus.
# To characterize and validate the neuroprosthesis' ability to sense and create artificial peristalsis, a fluoroscopic pellet study was conducted. Barium sulfate (Bracco E-Z-HD Barium Sulfate for Suspension (98% w/w), Patterson Veterinary) was mixed with a sodium alginate solution (Sigma) in a 50:50 volume by weight ratio. After 10 minutes of sonication at 30 deg C., the suspension was pipetted into a custom silicone mold sized for a triple zero capsule. After 24 hours, these pellets were hydrated with a 2M CaCl2 solution for at least 2 hours and rinsed with PBS for 72 hours. They were then placed in the esophagus using the endoscope. Stimulation and sensing were performed by the neuroprosthesis and the pellet was radiographically visualized using fluoroscopy. Further, intraluminal manometry studies were performed (n=4, swine) to characterize changes in esophageal reflexes and pressures following tool-based tissue manipulation and neuroprosthesis implantation as well as capture artificial peristalsis created by the neuroprosthesis. An intraluminal manometer (Endoflip, Medtronic) was inserted into the middle and lower esophagus using an overtube to profile distensibility, pressure, pattern of motility and minimal diameter of the esophagus. […] Electromyography was recorded from the electrodes during stimulation and rest periods. […]
Molecule,cell viability (C2C12 cells),"time to relaxation of the sphincter ([1]; after glucagon infusion through microfluidic channel, distal tip in lower esophageal sphincter) [s]","time until muscle tone returned ([1]; after glucagon infusion, repeated infusions again led to relaxation) [min]","relaxation of the LES on glucagon infusion ([1]; microfluidic infusion by the neuroprosthesis, 5mg/mL glucagon per stimulus, tonic LES at rest)"
CC(C)C[C@@H](C=O)NC(=O)[C@H](CC(C)C)NC(=O)[C@H](CC(C)C)NC(=O)OCc1ccccc1 [MG-132] (Cbz-Leu-Leu-Leu-aldehyde),significantly decreased cell viability,–,–,–
glucagon,–,10 to 20,≤ 1.5,yielded relaxation of this LES
